Source: a melting point compilation (Tetko et al.; mined from patent text by program, amines drawn as free bases though some values may be those of a salt)

| SMILES | melting point [°C] |
| --- | --- |
| CC(ON(C(C)(C)CO)C(C)(C)CO)c1ccccc1 (centres undefined) | 79 to 81 |
| COc1ccc(Nc2ccn(-c3ccccc3)n2)cc1 | 96 to 98 |
| COCCN(CCOC)c1nc(C)[nH]c2c(-c3ccc(Cl)cc3Cl)nc(C)c1-2 | 74 to 75 |
| O=C1C(=O)c2ccccc2C2=C1SCC1(CCN(CC3CCCO3)CC1)O2 (centres undefined) | 155 to 159 |
| Cc1nc2cc(OCCCN3CC=C(c4c[nH]c5ccc(C#N)cc45)CC3)ccc2s1 | 263 to 265 |
| CCCCCC1=CCC(c2cc(F)c(C#N)c(F)c2)C=C1 (centres undefined) | 59 |
| CCCCCCOC(=O)CS(=O)(=O)Nc1c(C(C)C)cccc1C(C)C | 66 to 68 |
| O=C(C=Cc1cccc(NS(=O)(=O)/C=C/c2ccccc2)c1)NO | 171 |
| CCOC(=O)C1=C(COCCN(C)S(C)(=O)=O)NC(C)=C(C(=O)OC)C1c1ccccc1Cl (centres undefined) | 93 to 95 |
| CC(C(N)=O)c1ccc2c(c1)C(=O)Cc1ccc(F)cc1S2 (centres undefined) | 176 to 178 |
| CCc1nnc(Cc2c(Cl)cncc2Cl)c2ccc(OC)cc12 | 136 to 138 |
| CCCc1c(OCCCCC(C)(C)c2nnn[nH]2)ccc(C(C)=O)c1O | 112 to 115 |
| Cn1cc(CN2C(=O)C3(COc4cc5c(cc43)OCCO5)c3ccccc32)ccc1=O (centres undefined) | 205 to 207 |
| O=C(O)Cc1c(C(=O)c2ccc(Cl)cc2)[nH]c2cc(Cl)ccc12 | 181 to 183 |
| C[C@@H]1c2onc(-c3ccc(Cl)cc3)c2CC[C@H]1C(=O)O (relative stereo) | 183 to 186 |
| Cc1ccc(OCCOc2ccc(C)cc2)cc1 | 134 |
| CC(C)CC(COc1ccc(-c2ccc(C#N)cc2)cc1)N(O)C=O (centres undefined) | 112 to 113 |
| CC(C)(C)S(=O)(=O)NC(=O)c1cccc([N+](=O)[O-])c1 | 220 |
| CC(=O)NC[C@H]1CN(c2cc(F)c(N3CCN(C(=O)COCc4ccccc4)CC3)c(F)c2)C(=O)O1 | 172 to 173 |
| Cn1c(SC(C(=O)O)c2ccccc2)nc2ccccc21 (centres undefined) | 157 to 159 |

| SMILES | melting point [°C] |
| --- | --- |
| CN1CCC23c4c5ccc(OCCCCN)c4CC1C2C=CC(O)C3O5 (centres undefined) | 140 to 142 |
| CCC(CC)CC(=N)NC(=S)Nc1ccc(Cl)cc1 | 116 to 118 |
| Nc1cccc(-c2ccc(-c3cccc(CN4CC5C(N)C5C4)c3)cc2)n1 (centres undefined) | 184 to 196 |
| CC(C)C(NC(=O)Cn1cc(Cc2ccccc2)cc(NC(=O)OCc2ccccc2)c1=O)C(=O)C(F)(F)F (centres undefined) | 58 to 64 |
| Cc1cccn2cc(CN3CCN(c4ccc(Cl)cc4)CC3)nc12 | 102 to 104 |
| CON(Cc1cccc(-c2ccc(Cl)cc2)c1)C(=O)c1cn(C)nc1C(F)F | 78 to 80 |
| Cc1ccncc1C(O)c1ccc2cc(C(=O)OC(C)C)ccc2c1 (centres undefined) | 180 to 183 |
| O=C(NC(Cc1ccccc1[N+](=O)[O-])c1ccccc1)C1CCCCC1 (centres undefined) | 210 to 212 |
| O=C(c1ccc(C(=O)N2CC3COCC3C2)cc1)N1CC2COCC2C1 (centres undefined) | 192 to 193 |
| Cn1cc(-c2cc(-c3cnc4[nH]ccc4c3)ccn2)n(-c2ccc(N3CCNCC3)c(C(F)(F)F)c2)c1=O | 163 |
| COC(=O)C1(N)CCN(c2ncc3ncnc(Nc4ccc(F)c(Cl)c4)c3n2)CC1 | 182 to 184 |
| C[C@H](CN(O)C(N)=O)NC(=O)c1cccc(Oc2ccccc2)c1 | 154 |
| C=CCN1C(=O)COc2cc(F)c(-n3c(=O)cc(CC)[nH]c3=O)cc21 | 197 to 200 |
| CNS(=O)(=O)CCc1ccc2[nH]cc(C3CCN(C)CC3)c2c1 | 156 to 158 |
| CCCCCCCCCCCCNC=C1C(=O)ON=C1C | 57 |
| CSc1sc(-c2ccno2)c2c1C(=O)CC(C)(C)C2 | 143 to 145 |
| CC=CC(=O)Oc1ccc(Nc2ccccc2)cc1 | 73 to 76 |
| Cc1cc2c(-c3ccccc3)c(C=O)n(C)c(=O)c2cc1C | 178 to 179 |
| NS(=O)(=O)c1ccc(-n2nc(C(F)(F)F)cc2-c2ccc(-c3cscn3)c(F)c2)cc1F | 196 to 198 |
